The values that follow come from patent US7041681B2, “Compounds as opioid receptor modulators” (Janssen Pharmaceutica N.V., priority 2002, dated 2006).

As a reminder, the Ki is a measure of affinity in units of concentration, obtained from inhibition or displacement.

The target in one assay is T1, mu opioid receptor (Rattus norvegicus, UniProt P33535).
T1 construct: from tissue; host or cells: rat forebrain homogenate (Wistar rat)
Nature of the assay: Rat Brain mu Opioid Receptor Binding Assay. Conditions: rat forebrain membranes, ~0.8 nM [3H]DAMGO, 25° C., 2.5 h; read-out: μ-opioid binding (Ki). As for the experimental part: (§1) Male, Wistar rats (150–250 g, VAF, Charles River, Kingston, N.Y.) are killed by cervical dislocation, and their brains removed and placed immediately in ice cold Tris HCl buffer (50 mM, pH 7.4). The forebrains are separated from the remainder of the brain by a coronal transection, beginning dorsally at the colliculi and passing ventrally through the midbrain-pontine junction. After dissection, the forebrains are homogenized in Tris buffer in a Teflon®-glass homogenizer. The homogenize is diluted to a concentration of 1 g of forebrain tissue per 80 mL Tris and centrifuged at 39,000×g for 10 min. The pellet is resuspended in the same volume of Tris buffer containing 5 mM MgCl2 with several brief pulses from a Polytron homogenizer. This particulate preparation is used for the mu-opioid binding assays. Following incubation with the mu selective peptide ligand ˜0.8 nM [^3H]DAMGO at 25° C. for 2.5 h in a 96-well plate with total 1 ml, the plate contents are filtered through Wallac filtermat B sheets on a Tomtec 96-well harvester. The filters are rinsed three times with 2 mL of 10 mM HEPES (pH7.4), and dried in a microwave oven 1:45 min twice. To each sample area 2×40 μl of Betaplate Scint scintillation fluid (LKB) is added and analyzed on a LKB (Wallac) 1205 BetaPlate liquid scintillation counter.
(§2) The data are used to calculate either the % inhibition compared to control binding (when only a single concentration of test compound is evaluated) or a Ki value (when a range of concentrations is tested). % inhibition is calculated as: [(total dpm-test compound dpm dpm)/(total dpm-nonspecific dpm)]*100. Kd and Ki values were calculated using GraphPad PRISM data analysis program.

Another assay has as its target T2, delta opioid receptor (Rattus norvegicus, UniProt P33533).
T2 construct: from tissue; host or cells: rat forebrain homogenate (Wistar rat)
Description: Rat Brain Delta Opioid Receptor Binding Assay. Conditions: rat forebrain membranes, ~4 nM [3H]DPDPE, 25° C., 2.5 h; read-out: δ-opioid binding (Ki). As for the experimental part:
as §1, with “delta opioid” for “mu-opioid”, “delta” for “mu”, “˜4” for “˜0.8”, “[^3H]DPDPE” for “[^3H]DAMGO”, “total volume of” for “total”
as §2

T2 sequence (P33533 whole entry): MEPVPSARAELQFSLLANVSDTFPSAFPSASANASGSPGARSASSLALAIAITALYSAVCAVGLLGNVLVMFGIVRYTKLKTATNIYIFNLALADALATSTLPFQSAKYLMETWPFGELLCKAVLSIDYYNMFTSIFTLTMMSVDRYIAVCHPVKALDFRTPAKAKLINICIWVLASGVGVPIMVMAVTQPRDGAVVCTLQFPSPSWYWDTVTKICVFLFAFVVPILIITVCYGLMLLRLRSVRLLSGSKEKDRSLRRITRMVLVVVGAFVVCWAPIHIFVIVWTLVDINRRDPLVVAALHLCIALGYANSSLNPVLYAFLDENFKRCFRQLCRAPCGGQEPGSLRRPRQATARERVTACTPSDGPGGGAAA
T1 sequence (P33535 whole entry): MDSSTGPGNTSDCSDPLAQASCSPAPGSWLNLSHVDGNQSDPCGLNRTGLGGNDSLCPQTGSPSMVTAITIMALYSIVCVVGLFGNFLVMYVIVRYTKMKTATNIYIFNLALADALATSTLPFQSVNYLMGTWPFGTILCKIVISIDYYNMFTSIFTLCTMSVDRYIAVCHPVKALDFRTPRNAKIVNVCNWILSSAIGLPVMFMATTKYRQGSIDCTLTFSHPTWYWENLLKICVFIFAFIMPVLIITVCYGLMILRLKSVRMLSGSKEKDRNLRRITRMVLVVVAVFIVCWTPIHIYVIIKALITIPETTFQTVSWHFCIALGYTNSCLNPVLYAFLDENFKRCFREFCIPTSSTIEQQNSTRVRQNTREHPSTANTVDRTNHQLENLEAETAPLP

Turning to `Cc1cc(O)cc(C)c1C[C@H](N)C(=O)N1CCCC[C@@H]1c1nc(-c2ccccc2)c[nH]1` [Cmpd 158], the values for the Ki on mu opioid receptor and at delta opioid receptor were 0.15 nM and 5.43 nM, respectively.

With `N[C@@H](Cc1ccc(C(=O)Nc2ccccc2)cc1)C(=O)N1Cc2ccccc2C[C@H]1c1nc(-c2ccccc2)c[nH]1` [Cmpd 111], the inhibition constant Ki on mu opioid receptor is 293 nM; at delta opioid receptor, 103 nM.

Take `CN[C@@H](Cc1c(C)cc(O)cc1C)C(=O)N1Cc2ccccc2C[C@H]1c1nc(-c2ccccc2)c[nH]1` [Cmpd 127]: the Ki at mu opioid receptor turned out to be 7.1 nM; on delta opioid receptor, 0.4 nM.

With `N[C@@H](Cc1ccc(C(=O)O)cc1)C(=O)N1CCCC[C@H]1c1nc(-c2ccccc2)c[nH]1` [Cmpd 9], the inhibitory constant (Ki) came to 26.8 nM at mu opioid receptor and 606 nM on delta opioid receptor.

Regarding `O=C(C(Cc1ccc(O)cc1)NCc1ccccc1)N1Cc2ccccc2CC1c1nc(-c2ccccc2)c[nH]1` (centres unmarked) [Cmpd 135], the values for the Ki on mu opioid receptor and on delta opioid receptor were 10000 nM and 185 nM, respectively.

For the molecule `CN[C@@H](Cc1c(C)cc(OC)cc1C)C(=O)N1CCCC[C@H]1c1nc(-c2ccccc2)c[nH]1` [Cmpd 33], the Ki is 42.9 nM at mu opioid receptor and 273 nM on delta opioid receptor.

As to `O=C([C@H](Cc1ccc(O)cc1)NCc1ccccc1)N1Cc2ccccc2C[C@@H]1c1nc(-c2ccccc2)c[nH]1` [Cmpd 134], the Ki amounted to 329 nM on mu opioid receptor and 10000 nM at delta opioid receptor.

Regarding `CNC(=O)c1ccc(C[C@H](N)C(=O)N2Cc3ccccc3C[C@H]2c2nc(-c3ccccc3)c[nH]2)cc1` [Cmpd 117], the Ki on mu opioid receptor worked out at 23.6 nM; at delta opioid receptor it was 1.61 nM.

Regarding `Nc1cc(C[C@H](N)C(=O)N2CCCC[C@H]2c2nc(-c3ccccc3)c[nH]2)ccc1O` [Cmpd 16], the figures for the Ki on mu opioid receptor and on delta opioid receptor were 115 nM and 5330 nM, respectively.

Regarding `CN[C@@H](Cc1ccc(OC(=O)C(C)(C)C)cc1)C(=O)N1Cc2ccccc2C[C@H]1c1nc(-c2ccccc2)c[nH]1` [Cmpd 128], the figures for the Ki at mu opioid receptor and on delta opioid receptor were 213 nM and 5.2 nM, respectively.

On to `COc1ccc(C[C@H](N)C(=O)N2Cc3ccccc3C[C@H]2c2nc(-c3ccccc3)c(C)[nH]2)cc1` [Cmpd 156], for which the Ki came to 179 nM at mu opioid receptor and 28 nM on delta opioid receptor.

For the molecule `Nc1ccc(CC(N)C(=O)N2CCCCC2c2nc(-c3ccccc3)c[nH]2)cc1` (centres unmarked) [Cmpd 30], the Ki worked out at 57.2 nM on mu opioid receptor and 1020 nM on delta opioid receptor.

In the case of `Cc1cc(O)cc(C)c1C[C@H](N)C(=O)N1CCCC[C@H]1c1nc(-c2ccccc2)c(C)[nH]1` [Cmpd 29], the Ki worked out at 0.09 nM on mu opioid receptor and 0.51 nM on delta opioid receptor.

Turning to `CC(=O)Oc1cc(C)c(CC(N)C(=O)N2Cc3ccccc3CC2c2nc(-c3ccccc3)c[nH]2)c(C)c1` (centres unmarked) [Cmpd 113], the figures for the Ki on mu opioid receptor and at delta opioid receptor were 0.5 nM and 0.2 nM, respectively.

`Cc1[nH]c([C@@H]2Cc3ccccc3CN2C(=O)[C@@H](N)Cc2ccc(N)cc2)nc1-c1ccccc1` [Cmpd 142]: the values for the Ki on mu opioid receptor and on delta opioid receptor were 857 nM and 93 nM, respectively.

In the case of `CN[C@@H](Cc1c(C)cc(O)cc1C)C(=O)N1CCCC[C@H]1c1nc(-c2ccccc2)c[nH]1` [Cmpd 28], the Ki at mu opioid receptor came to 0.3 nM; at delta opioid receptor it was 21.5 nM.

As for `Cc1cc(O)cc(C)c1CC(N)C(=O)N1CCCCC1c1nc(-c2ccccc2)c[nH]1` (centres unmarked) [Cmpd 34], the inhibition constant Ki was 0.05 nM at mu opioid receptor and 1.86 nM at delta opioid receptor.

For `COc1ccc(CC(N)C(=O)N2Cc3ccccc3CC2c2nc(-c3ccccc3)c(C)[nH]2)cc1` (centres unmarked) [Cmpd 154], the Ki at mu opioid receptor and on delta opioid receptor was 10000 nM in each case.

For `CC(=O)c1ccc(C[C@H](N)C(=O)N2Cc3ccccc3C[C@H]2c2nc(-c3ccccc3)c[nH]2)cc1` [Cmpd 110], the Ki at mu opioid receptor turned out to be 413 nM; on delta opioid receptor it was 30.4 nM.

For `CC(=O)Nc1ccc(C[C@H](N)C(=O)N2Cc3ccccc3C[C@H]2c2nc(-c3ccccc3)c(C)[nH]2)cc1` [Cmpd 141], the figures for the Ki at mu opioid receptor and at delta opioid receptor were 207 nM and 34 nM, respectively.

As for `NC(=O)c1ccc(C[C@H](N)C(=O)N2CCCC[C@H]2c2nc(-c3ccccc3)c[nH]2)cc1` [Cmpd 15], the Ki on mu opioid receptor was 2.6 nM; at delta opioid receptor, 65.3 nM.

Regarding `Cc1cc(OC(=O)C(C)(C)C)cc(C)c1C[C@H](N)C(=O)N1Cc2ccccc2C[C@H]1c1nc(-c2ccccc2)c[nH]1` [Cmpd 116], the Ki was 9.6 nM on mu opioid receptor and 3.5 nM on delta opioid receptor.

`C[C@](N)(Cc1ccc(OCc2ccccc2)cc1)C(=O)N1Cc2ccccc2C[C@H]1c1nc(-c2ccccc2)c[nH]1` [Cmpd 122]: the Ki at mu opioid receptor was 2520 nM; at delta opioid receptor, 346 nM.

Consider `Cc1[nH]c([C@@H]2Cc3ccccc3CN2C(=O)[C@@H](N)Cc2ccc(C(N)=O)cc2)nc1-c1ccccc1` [Cmpd 118], for which the Ki stood at 23.1 nM on mu opioid receptor and 0.73 nM on delta opioid receptor.

With `CNC(Cc1c(C)cc(OC)cc1C)C(=O)N1Cc2ccccc2CC1c1nc(-c2ccccc2)c[nH]1` (centres unmarked) [Cmpd 146], the Ki turned out to be 817 nM on mu opioid receptor and 668 nM on delta opioid receptor.

Regarding `Cc1cc(O)cc(C)c1CC(N)C(=O)N1Cc2ccccc2CC1c1nc(-c2ccccc2)c[nH]1` (centres unmarked) [Cmpd 131], the Ki on mu opioid receptor was found to be 0.3 nM; at delta opioid receptor, 0.09 nM.

As to `Cc1cc(O)cc(C)c1C[C@H](NC=O)C(=O)N1CCCC[C@H]1c1nc(-c2ccccc2)c[nH]1` [Cmpd 37], the values for the Ki on mu opioid receptor and at delta opioid receptor were 13.3 nM and 5230 nM, respectively.

As to `NC(Cc1ccc(C(=O)O)cc1)C(=O)N1Cc2ccccc2CC1c1nc(-c2ccccc2)c[nH]1` (centres unmarked) [Cmpd 106], the values for the Ki on mu opioid receptor and at delta opioid receptor were 5780 nM and 5200 nM, respectively.

Take `CNC(Cc1ccc(O)cc1)C(=O)N1Cc2ccccc2CC1c1nc(-c2ccccc2)c[nH]1` (centres unmarked) [Cmpd 145]: the Ki on mu opioid receptor was determined as 59.1 nM; on delta opioid receptor, 1.18 nM.

Regarding `CN1CCN(C(=O)c2ccc(C[C@H](N)C(=O)N3Cc4ccccc4C[C@H]3c3nc(-c4ccccc4)c[nH]3)cc2)CC1` [Cmpd 102], the inhibition constant (Ki) turned out to be 1240 nM at mu opioid receptor and 5350 nM on delta opioid receptor.

Consider `CCNC(=O)c1ccc(C[C@H](N)C(=O)N2CCCC[C@H]2c2nc(-c3ccccc3)c[nH]2)cc1` [Cmpd 1], for which the Ki was determined as 0.15 nM at mu opioid receptor and 20.9 nM at delta opioid receptor.

On to `NC(Cc1ccc(C(=O)NCCO)cc1)C(=O)N1CCCCC1c1nc(-c2ccccc2)c[nH]1` (centres unmarked) [Cmpd 14], for which the inhibitory constant (Ki) stood at 9.3 nM on mu opioid receptor and 5140 nM at delta opioid receptor.

On to `N#Cc1ccc(CC(N)C(=O)N2Cc3ccccc3CC2c2nc(-c3ccccc3)c[nH]2)cc1` (centres unmarked) [Cmpd 160], for which the Ki on mu opioid receptor stood at 1340 nM; on delta opioid receptor, 752 nM.

Regarding `COc1cc(C)c(CC(N)C(=O)N2Cc3ccccc3CC2c2nc(-c3ccccc3)c[nH]2)c(C)c1` (centres unmarked) [Cmpd 147], the values for the Ki on mu opioid receptor and on delta opioid receptor were 150 nM and 43 nM, respectively.

With `CC(N)(Cc1ccc(O)cc1)C(=O)N1CCCCC1c1nc(-c2ccccc2)c[nH]1` (centres unmarked) [Cmpd 25], the Ki worked out at 1.69 nM on mu opioid receptor and 107 nM at delta opioid receptor.

Turning to `N[C@@H](Cc1ccc(Cl)cc1)C(=O)N1Cc2ccccc2C[C@H]1c1nc(-c2ccccc2)c[nH]1` [Cmpd 144], the results for the Ki on mu opioid receptor and on delta opioid receptor were 5260 nM and 1130 nM, respectively.

In the case of `CS(=O)(=O)Nc1ccc(CC(N)C(=O)N2Cc3ccccc3CC2c2nc(-c3ccccc3)c[nH]2)cc1` (centres unmarked) [Cmpd 114], the Ki on mu opioid receptor was 356 nM; at delta opioid receptor it was 342 nM.
